Data published in ChEMBL document CHEMBL4811228, “Design, Synthesis, and Activity Evaluation of Novel Acyclic Nucleosides as Potential Anticancer Agents In Vitro and In Vivo” (J Med Chem, 2021).

Columns and labels:
HCT-116 = experiment: Antiproliferative activity against human HCT-116 cells assessed as reduction in cell viability incubated for 48 hrs by MTT assay; format: functional, cell-based; conditions: HCT-116, 48 h
SW480 = experiment: Antiproliferative activity against human SW480 cells assessed as reduction in cell viability incubated for 48 hrs by MTT assay; format: functional, cell-based; conditions: SW480, 48 h

Row | SMILES | IC50 (HCT-116) | IC50 (SW480)
1 | OCCCn1cnc2c(Cl)nc(F)nc21 | 39.8 µM | 29.7 µM
2 | CCCCCCCCC[C@H](CCOS(C)(=O)=O)n1cnc2c(Cl)ncnc21 | 9.48 µM | 9.72 µM
3 | CCCCCCCCC[C@H](CCN=[N+]=[N-])n1cnc2c(Cl)ncnc21 | 1.19 µM | 1.22 µM
4 | CCCCCCCC[C@@H](CCO)n1cnc2c(Cl)ncnc21 | 3.4 µM | 2.33 µM
5 | CCCCCCC[C@@H](CCO)n1cnc2c(Cl)ncnc21 | 10.7 µM | 3.82 µM
6 | CCCCCCC[C@H](CCO)n1cnc2c(Cl)ncnc21 | 2.67 µM | 2.93 µM
7 | CCCCCCCC[C@H](CCO)n1cnc2c(Cl)ncnc21 | 1.12 µM | 0.32 µM
8 | CCCCCCCCC[C@@H](CCO)n1cnc2c(Cl)ncnc21 | 1.05 µM | 3.62 µM
9 | CCCCCCCCC[C@H](CCO)n1cnc2c(Cl)ncnc21 | 0.45 µM | 1.63 µM
10 | CCCCCCCCC[C@H](CCOCP(=O)(OCC)OCC)n1cnc2c(Cl)ncnc21 | 10.9 µM | 5.57 µM
11 | CCCCCCCCC[C@H](CCn1cc(-c2ccccc2)nn1)n1cnc2c(Cl)ncnc21 | 8.13 µM | 8.57 µM
12 | CCCCCCCCC[C@H](CCCl)n1cnc2c(Cl)ncnc21 | 9.58 µM | 3.18 µM
13 | O=C(OCC(CCO)n1cnc2c(Cl)ncnc21)c1ccccc1 (racemic) | > 50 µM | > 50 µM
14 | CCCCCCCC(CCO)n1cnc2c(Cl)nc(F)nc21 (racemic) | 17.6 µM | 26.1 µM
15 | CCCCCC(CCO)n1cnc2c(Cl)nc(F)nc21 (racemic) | 8.66 µM | 7.44 µM
16 | CCCCCCCCCC(CCO)n1cnc2c(Cl)nc(F)nc21 (racemic) | 32 µM | 12.5 µM
17 | O=C(OCC(CCO)n1cnc2c(Cl)nc(F)nc21)c1ccccc1 (racemic) | 5.17 µM | 7.24 µM
18 | OCCC(COCc1ccccc1)n1cnc2c(Cl)nc(F)nc21 (racemic) | 5.24 µM | 7.17 µM
19 | CCCCCCC(CCO)n1cnc2c(Cl)ncnc21 (racemic) | 11.9 µM | 16.7 µM

Row | SMILES | IC50 (HCT-116) | IC50 (SW480)
20 | CCC(CCO)n1cnc2c(Cl)ncnc21 (racemic) | > 50 µM | > 50 µM
21 | CCCCCCCCC(CCO)n1cnc2c(Cl)ncnc21 (racemic) | 1.65 µM | 1.37 µM
22 | CC(C)(C)[Si](C)(C)OCC(CCO)n1cnc2c(Cl)nc(F)nc21 (racemic) | 7.78 µM | 8.02 µM
23 | OCCC(COCc1ccccc1)n1cnc2c(Cl)ncnc21 (racemic) | > 50 µM | > 50 µM
24 | CCC(CCO)n1cnc2c(Cl)nc(F)nc21 (racemic) | 18.9 µM | 19.8 µM
25 | CC(CCO)n1cnc2c(Cl)nc(F)nc21 (racemic) | 19.8 µM | 16.8 µM
26 | CCCCCCCCCCC(CCO)n1cnc2c(Cl)ncnc21 (racemic) | 4.93 µM | 3.16 µM
27 | CCCCCCC(CCO)n1cnc2c(Cl)nc(F)nc21 (racemic) | 9.96 µM | 12.9 µM
28 | CCCCCC(CCO)n1cnc2c(Cl)ncnc21 (racemic) | > 50 µM | > 50 µM
29 | CCCCCCCCC(CCO)n1cnc2c(Cl)nc(F)nc21 (racemic) | 24.2 µM | 15 µM
30 | CC(CCO)n1cnc2c(Cl)ncnc21 (racemic) | > 50 µM | > 50 µM
31 | CCCC(CCO)n1cnc2c(Cl)ncnc21 (racemic) | > 50 µM | > 50 µM
32 | CCCCC(CCO)n1cnc2c(Cl)nc(F)nc21 (racemic) | 13.5 µM | 13.2 µM
33 | CCCCCCCCCCCCC(CCO)n1cnc2c(Cl)ncnc21 (racemic) | > 50 µM | > 50 µM
34 | CCCCCCCCCCCC(CCO)n1cnc2c(Cl)ncnc21 (racemic) | 7.59 µM | 5.29 µM
35 | CCCC(CCO)n1cnc2c(Cl)nc(F)nc21 (racemic) | 16.5 µM | 17.2 µM
36 | CCCCCCCC(CCO)n1cnc2c(Cl)ncnc21 (racemic) | 4.16 µM | 3.63 µM
37 | CCCCC(CCO)n1cnc2c(Cl)ncnc21 (racemic) | > 50 µM | > 50 µM
